The nature of data set [1]: Metabolite ID assay in human liver microsomes. The format is in vitro ADME. As to conditions: human liver microsomes 1 mg/mL, 1 mM NADPH, 5 μM substrate, 0, 30, 60 minutes. As to the method:
The metabolic stability of Example 3 and Comparative Example 1 in human liver microsmoes was conducted according to the following procedure. Human liver microsomes (35 μL protein concentration 20 mg/mL), 350 μL of 100 mM potassium phosphate buffer (pH 7.4), 245 μL of deionized water and 0.7 μL of compound stock solution (5 mM) were combined in a 1.5 mL microcentrifuge tube. The tube was sealed and gently vortexed for 10 seconds, then placed in an Eppendorf ThermoMixer C and pre-warmed at 37° C. with shaking at 1100 rpm for 5 minutes.
NADPH solution (70 μL; 10 mM in water) was added while shaking, the mixture was aspirated several times with pipet, and 200 μL was removed to a fresh 1.5 mL microcentrifuge tube on ice containing 200 μL of cold acetonitrile. […]
The chilled aliquots were centrifuged at 14,300 rpm in a microcentrifuge for 10 minutes at 10° C., then the supernatant was transferred to a deepwell (1 mL) 96 well plate and sealed with a silicon mat. […] 20 μL samples were analyzed by UPLC-MS in order to identify and quantify the metabolites (Agilent 1290 G4220 binary pump UPLC with Agilent G1316 TCC column oven; Waters Acquity UPLC BEH C18 (130 Å pore size, 1.7 μm particle size, 2.1×50 mm) column held at 40° C.; Agilent 1290 G4212 DAD diode array with wavelength range 190 to 400 nm; Thermo Electron Orbitrap Elite mass spectrometer in FTMS positive mode). […]
In general terms: Microsomes from liver hold many membrane-bound enzymes, among them those of drug oxidation.

Data set [2] can be described thus: Drug concentration in plasma of Cynomolgus monkey after oral dosing. The format is in vivo. The note with it: 300 mg/kg. The text has this: Each dosing group consisted of three male Cynomolgus monkeys.

The values that follow come from patent publication US10774054B2, “FXR (NR1H4) modulating compounds” (Gilead Sciences, Inc., priority 2016, dated 2020).

Consider `O=C(O)c1cnc(N2CC(O)(c3ccc(OCc4c(-c5c(Cl)cccc5Cl)noc4C4CC4)cc3Cl)C2)c(F)c1` [Comparative Example 1], for which, in data set [1], the “formation of diol metabolite M1” value is “metabolized to a diol compound (M1)”. Consider `O=C(O)c1cnc(N2CC(O)(c3ccc(OCc4c(-c5c(Cl)cc(F)cc5Cl)noc4C4CC4)cc3Cl)C2)c(F)c1` [Example 3, 6-(3-(2-chloro-4-((5-cyclopropyl-3-(2,6-dichloro-4-fluorophenyl)isoxazol-4-yl)methoxy)phenyl)-3-hydroxyazetidin-1-yl)-5-fluoronicotinic acid], for which the “maximal plasma AUC of the two compounds compared” value in data set [2] is “comparable”.
